# Laboratory results taken from patent US6369066B1, “Substituted 1,3-oxathiolanes with antiviral properties” (BioChem Pharma, Inc., priority 1990, dated 2002).
# Where two headings read alike, the source gives them in different places.
# Assays:
# Assay type in all cases: cell-based
# [1] = test system: HIV-1 HXB2D-184 M→V (3TC™ and FTC resistance mutation); assay: IC50 in CBMCs with constructed mutated virus HXB2D-184
# Procedure: (§1) In short, viruses (HTLV-IIIB) that had initially been grown on MT-4 cells were passaged onto phytohemaglutinin-prestimulated cord blood mononuclear cells (CBM). For subsequent analysis, samples of CBM (5×10^5 cells per mL) were pretreated with various concentrations of the different compounds for 4 h and were then inoculated with CBL-grown HIV-1 at a multiplicity of infection of 1.0 in the concentration of the compound used for the pretreatment. Fresh medium, including the appropriate concentration of the compound was added three times weekly, and fresh phytohemaglutinin-prestimulated CBM (5×10^5 cells per mL) were added at 2-day intervals. The calculation of IC50 was determined on the basis of RT levels in culture fluids as described in Gao et al., (1992), J. Virol. 66: 12-19.
# (§2) Determination of IC50 (μM) in Different Mutated Isolates of HIV-1 in the Presence of Different Antiviral Compounds
# (§3) The procedure is similar to the procedure used in the CBM assay, with the exception that constructed virus and construted mutated virus were used.
# (§4) The constructed virus HXB2D-65 correspond to the ddC resistance mutation and the constructed virus HXB2D-184 correspond to the 3TC™ and FTC resistance mutation.
# HIV-1 HXB2D = assay: IC50 in CBMCs with constructed virus HXB2D
# Procedure: as §1, §2, §3, §4
# [2] = test system: HIV-1 HXB2D-65 K→R (ddC resistance mutation); assay: IC50 in CBMCs with constructed mutated virus HXB2D-65
# Procedure: as §1, §2, §3, §4
# HIV-1 IIIB = assay: IC50 in CBMCs with HIV-1 isolate IIIB
# Procedure: as §1, §2, §3
# HTLV-IIIb = assay: HIV-1 acutely infected cell lines, p24 antigen levels; settings: p24 antigen at day 6; for ID50 CEM: CEM cells infected with HTLV-IIIb; for ID50 H9: H9 cells infected with HTLV-IIIb; for ID50 Jurkat: Jurkat cells infected with HTLV-IIIb; for ID50 MT-4: MT-4 cells infected with HTLV-IIIb; for ID50 U937: U937 cells infected with HTLV-IIIb
# Procedure: Determination of IC50 ([…]) in HIV-1 Acutely Infected Cell Lines in the Presence of Differet Antiviral Compounds
# Various cell lines were infected with HTLV-IIIb (TCID50=200) and then cultured with various concentrations of drug. IC50 was determined by measuring p24 antigen levels in the supernatant of cultures at day 6 of infection.
# CBMCs = assay: Cell culture inhibitory dose (CCID50) in CBMCs; settings: cell counting, trypan blue exclusion, 7 days post drug treatment
# Procedure: (§5) Evaluation of Cell Culture Inhibitory Dose (CCID50)
# (§6) Cell growth was determined by cell counting and viability by trypan blue exclusion 7 days post drug treatment. CCID50 is expressed as the drug concentration which inhibits 50% of cell growth.
# HIV-1 strain RF = assay: Formazan (MTT) assay on MT-4 cells, anti-HIV-1 antiviral activity; settings: Human immunodeficiency virus 1, MT4, 168 h, MT-4 cells infected with HIV-1 strain RF, 7 days, read-out: IC50 (50% anti-viral dose, ID 50%)
# Procedure: Formazan Assay on MT-4 and 3TC™-Resistant Cell Lines
# (§7) Anti-HIV-1 antiviral activity was determined in MT-4 calls and MT-4 cells that have been made resistant to 3TC™. A suspension of cells (approximately 10^6 cells/ml) in RPMI 1640 growth medium was infected with HIV-1 strain RF at a M.O.I. of 10^−3 infectious units/cell. An uninfected cell suspension was prepared in parallel to evaluate drug-induced cytotoxicity. The two suspensions were incubated for 90 minutes at room temperature. Test compounds were serially diluted in 10-fold decrements from 100 μg/ml to 0.01 μg/ml (final concentrations in two 96 well microtitre plates. 20 μl of infected cell suspension were inoculated into each well of one of the plates (anti-viral), while 20 μl of uninfected cell suspension were added to each well of the second plate (cytotoxicity). The plates were then incubated for 7 days at 37° C. After incubation, 10 μl of 3-(4,5-dimethylthiazol-2-yl)-2,5-diphenyltetrazolium bromide (MTT) at 20 mg/ml was added to all wells and the plates incubated for a further 90 minutes at 37° C.
# 150 μl of 10% (v/v) alcoholic Triton X-100 was then added and the cells resuspended. After 15 minutes at room temperature, the plates were analyzed in a Multiskan MC reader at 405 nm. Conversion of yellow MMT to its formazan derivative is maximum in uninfected cells, and absent in untreated infected cells. The optical density values for the cytotoxicity controls and the antiviral test wells were graphically plotted and the dose of compounds required to inhibit the conversion of MMT to 50% of the untreated uninfected controls was calculated. In this way, both the 50% cytotoxic dose (CD 50%) and the 50% anti-viral dose (ID 50%) can be calculated.
# HIV-1 (HTLV-IIIB) = assay: CBM assay, IC50 from RT levels in culture fluids; settings: Human immunodeficiency virus 1
# Procedure: Assays on cord blood mononuclear cells were done substantially as described in Gu et al., J. Virol. (1992), 66:7128-7135.
# as §1
# Jurkat = assay: Cell culture inhibitory dose (CCID50) in Jurkat; settings: cell counting, trypan blue exclusion, 7 days post drug treatment
# Procedure: as §5, §6
# U937 = assay: Cell culture inhibitory dose (CCID50) in U937; settings: cell counting, trypan blue exclusion, 7 days post drug treatment
# Procedure: as §5, §6
# MT-4 = assay: Cell culture inhibitory dose (CCID50) in MT-4; settings: cell counting, trypan blue exclusion, 7 days post drug treatment
# Procedure: as §5, §6
# CEM = assay: Cell culture inhibitory dose (CCID50) in CEM; settings: cell counting, trypan blue exclusion, 7 days post drug treatment
# Procedure: as §5, §6
# H9 = assay: Cell culture inhibitory dose (CCID50) in H9; settings: cell counting, trypan blue exclusion, 7 days post drug treatment
# Procedure: as §5, §6
# MT-4 cells = assay: Formazan (MTT) assay, drug-induced cytotoxicity in uninfected MT-4 cells; settings: human, 7 days
# Procedure: as §7, with “A suspension of cells (approximately 10^6 cells/ml) in RPMI 1640 growth medium was infected with HIV-1 strain RF at a M.O.I. of 10^−3 infectious units/cell.” left out
# 150 μl of 10% (v/v) alcoholic Triton X-100 was then added and the cells resuspended. After 15 minutes at room temperature, the plates were analyzed in a Multiskan MC reader at 405 nm. […] The optical density values for the cytotoxicity controls and the antiviral test wells were graphically plotted and the dose of compounds required to inhibit the conversion of MMT to 50% of the untreated uninfected controls was calculated.
# human hepatitis B virus = assay: Inhibition of human hepatitis B virus in 2.2.15 cells, extracellular HBV DNA; settings: 10 day treatment
# Procedure: Inhibition of Human Hepatitis B Virus.
# (§8) The method used for this test is described in detail in Korba et al., Antiviral research 15, 217-228 (1992) which is shortly described as follows: Hep G2 cells transfected with human hepatitis B virus genomic DNA (2.2.15 cells) were grown and maintained in RPMI-1640 culture medium containing %5 foetal bovine serum, 2 mM glutamine and 50 μg/ml gentamicin sulphate, and checked routinely for G418 resistance. Cultures of 2.2.15 cells were grown to confluence in 24 well tissue culture plates and maintained for 2 to 3 days in that condition prior to drug treatment.
# Drugs were dissolved in sterile water or sterile 50% DMSO in water at concentrations 100-fold higher than the higher test concentration. These solutions were diluted as needed in culture medium.
# The culture medium on the confluent cells was changed 24 hours prior to exposure to test compounds. During the 10 day treatment, the culture medium was changed daily. After 10 days of the treatment, the culture medium was collected and frozen at −70° C. for HBV DNA analysis. […]
# A purified 3.2 kb EcoR1 HBV DNA fragment was labeled with [^32p]dCTP by nick translation and used as a probe to detect HBV DNA on the dot-blot by DNA hybridization. After washing, the hybridized blot was dried and ^32p was quantified using an Ambis beta scanner.
# [3] = test system: cord blood mononuclear cells (CBM); assay: Cytotoxicity (CD50) reported with CBM assay
# Procedure: Assays on cord blood mononuclear cells were done substantially as described in Gu et al., J. Virol.
# as §1, with “The calculation of IC50 was determined on the basis of RT levels in culture fluids as described in Gao et al., (1992), J. Virol.” left out
# [4] = test system: 2.2.15 cells (Hep G2 cells transfected with human hepatitis B virus genomic DNA); assay: Cytotoxicity (CD50) reported with HBV assay; settings: HBV table
# Procedure: as §8
# [5] = Human immunodeficiency virus 1, read-out: IC50 HXB2D-184 M→V
# [6] = Human immunodeficiency virus 1, read-out: IC50 HXB2D
# [7] = Human immunodeficiency virus 1, read-out: IC50 HXB2D-65 K→R
compound,measurement,setting,value
"Nc1ccn([C@@H]2CS[C@H](CO)O2)c(=O)n1 [3TC ™, reference compound]",IC50,"[1]; CBMCs, 3TC™ and FTC resistance mutation, read-out: IC50 HXB2D-184 M→V",42500 nM
same,IC50,"HIV-1 HXB2D; CBMCs, constructed virus HXB2D, read-out: IC50 HXB2D",80 nM
same,IC50,"[2]; CBMCs, ddC resistance mutation, read-out: IC50 HXB2D-65 K→R",125 nM
same,IC50,HIV-1 IIIB,10 nM
"Cc1cn([C@H]2C[C@H](N=[N+]=[N-])[C@@H](CO)O2)c(=O)[nH]c1=O [AZT, 3′-azido-3′-deoxythymidine, reference compound]",ID50 CEM,HTLV-IIIb,0.01 µg/mL
same,ID50 H9,HTLV-IIIb,0.07 µg/mL
same,ID50 Jurkat,HTLV-IIIb,0.01 µg/mL
same,ID50 MT-4,HTLV-IIIb,0.005 µg/mL
same,ID50 U937,HTLV-IIIb,0.04 µg/mL
same,CCID50 CBMCs,CBMCs,45 µM
same,IC50,[1]; [5],1 nM
same,IC50,HIV-1 HXB2D; [6],2 nM
same,IC50,HIV-1 strain RF,0.01 µg/mL
same,IC50,HIV-1 (HTLV-IIIB),< 0.002 µg/mL
same,CCID50 Jurkat,Jurkat,>500 µM
same,IC50,[2]; [7],1 nM
same,IC50,HIV-1 IIIB; Human immunodeficiency virus 1,2 nM
same,CCID50 U937,U937,110 µM
same,CCID50 MT-4,MT-4,110 µM
same,CCID50 CEM,CEM,500 µM
same,CCID50 H9,H9,200 µM
"Nc1ccn(C2COC(CO)S2)c(=O)n1 (stereo not drawn) [BCH-270, Cis- and Trans-2-hydroxymethyl-4-(cytosin-1′-yl)-1,3-oxathiolane]",CD50 (50% cytotoxic dose),MT-4 cells,>100 µg/mL
same,IC50,HIV-1 strain RF,4 µg/mL
same,ID50 (HBV),human hepatitis B virus,7.5 µg/mL
same,IC50,HIV-1 (HTLV-IIIB),0.03 µg/mL
same,CD50,[3],>23 µg/mL
same,CD50 (HBV),[4],>10 µg/mL
"Nc1ccn([C@H]2CO[C@@H](CO)S2)c(=O)n1 [Compound #1, 2R-hydroxymethyl-4R-(cytosin-1′-yl)-1,3-oxathiolane]",ID50 CEM,HTLV-IIIb,0.2 µg/mL
same,ID50 H9,HTLV-IIIb,0.3 µg/mL
same,ID50 Jurkat,HTLV-IIIb,3.0 µg/mL
same,ID50 MT-4,HTLV-IIIb,2.8 µg/mL
same,ID50 U937,HTLV-IIIb,0.4 µg/mL
same,CCID50 CBMCs,CBMCs,>500 µM
same,IC50,[1]; [5],530 nM
same,CD50 (50% cytotoxic dose),MT-4 cells,>100 µg/mL
same,IC50,HIV-1 HXB2D; [6],1000 nM
same,IC50,HIV-1 strain RF,13 µg/mL
same,IC50,HIV-1 (HTLV-IIIB),0.05 to 1.22 µg/mL
same,CD50,[3],>23 µg/mL
same,CCID50 Jurkat,Jurkat,450 µM
same,IC50,[2]; [7],2500 nM
same,IC50,HIV-1 IIIB; Human immunodeficiency virus 1,220 nM
same,CCID50 U937,U937,>500 µM
same,CCID50 MT-4,MT-4,>500 µM
same,CCID50 CEM,CEM,>500 µM
same,CCID50 H9,H9,>500 µM
